Measurements from patent US10004701B2, “Methods and compositions for treating infection” (UNIVERSITY OF ROCHESTER, priority 2012, dated 2018).
Structures can show the parent of a compound that is named as a salt. Where two headings read alike, the source gives them in different places.

What was measured:
Assay in all cases: AK assay 384-well format, Prestwick library screening
[1] = tested on: E. faecium; format: cell-based, Enterococcus faecium; conditions: 50 μM final drug concentration; for fold induction at 50 µM: Enterococcus faecium, 3 h
[2] = tested on: A. baumannii strain 98-37-09; format: cell-based, Acinetobacter baumannii; conditions: 50 μM final drug concentration; for fold induction at 50 µM: Acinetobacter baumannii, 983709, 3 h
[3] = tested on: K. pneumoniae; format: cell-based, Klebsiella pneumoniae; conditions: 50 μM final drug concentration; for fold induction at 50 µM: Klebsiella pneumoniae, 3 h
[4] = tested on: S. aureus strain USA300-0114; format: cell-based, Staphylococcus aureus; conditions: 50 μM final drug concentration; for fold induction at 50 µM: Staphylococcus aureus, USA300, 3 h
[5] = tested on: E. coli; format: cell-based, Escherichia coli; conditions: 50 μM final drug concentration; for fold induction at 50 µM: Escherichia coli, 3 h
[6] = tested on: E. cloacae; format: cell-based, Enterobacter cloacae; conditions: 50 μM final drug concentration; for fold induction at 50 µM: Enterobacter cloacae, 3 h
[7] = tested on: P. aeruginosa; format: cell-based, Pseudomonas aeruginosa; conditions: 50 μM final drug concentration; for fold induction at 50 µM: Pseudomonas aeruginosa, 3 h
[8] = 384-well format, cutoff for positive-scoring molecules 3-fold increase, read-out: AK-based Prestwick Library Screening Results, E. faecium (increase in extracellular AK activity)
[9] = 384-well format, cutoff for positive-scoring molecules 3-fold increase, read-out: AK-based Prestwick Library Screening Results, A. baumannii (increase in extracellular AK activity)
[10] = 384-well format, cutoff for positive-scoring molecules 3-fold increase, read-out: AK-based Prestwick Library Screening Results, K. pneumoniae (increase in extracellular AK activity)
[11] = 384-well format, cutoff for positive-scoring molecules 3-fold increase, read-out: AK-based Prestwick Library Screening Results, S. aureus (increase in extracellular AK activity)
[12] = 384-well format, cutoff for positive-scoring molecules 3-fold increase, read-out: AK-based Prestwick Library Screening Results, E. coli (increase in extracellular AK activity)
[13] = 384-well format, cutoff for positive-scoring molecules 3-fold increase, read-out: AK-based Prestwick Library Screening Results, E. cloacae (increase in extracellular AK activity)
[14] = 384-well format, cutoff for positive-scoring molecules 3-fold increase, read-out: AK-based Prestwick Library Screening Results, P. aeruginosa (increase in extracellular AK activity)
[15] = planktonic, cutoff for positive 3-fold increase

SMILES	fold induction at 50 µM [1, 8]	fold induction at 50 µM [2, 9]	fold induction at 50 µM [3, 10]	fold induction at 50 µM [4, 11]	fold induction at 50 µM [5, 12]	fold induction at 50 µM [6, 13]	fold induction at 50 µM [7, 14]	further results
COc1ccc(CC2c3cc(OC)c(OC)cc3CC[N+]2(C)CCC(=O)OCCCCCOC(=O)CC[N+]2(C)CCc3cc(OC)c(OC)cc3C2Cc2ccc(OC)c(OC)c2)cc1OC (stereo not drawn) [Atracurium besylate]	0.8	0.4	0.5	0.5	0.5	0.3	0.4	–
CNCCc1ccccn1.CS(=O)(=O)O.CS(=O)(=O)O [Betahistine mesylate]	–	–	–	–	–	–	–	AK-based Prestwick Library Screening Results, E. faecium (fold increase in extracellular AK activity) [1, 15]: 0.9; AK-based Prestwick Library Screening Results, A. baumannii (fold increase in extracellular AK activity) [2, 15]: 1.2; AK-based Prestwick Library Screening Results, K. pneumoniae (fold increase in extracellular AK activity) [3, 15]: 1.1; AK-based Prestwick Library Screening Results, S. aureus (fold increase in extracellular AK activity) [4, 15]: 0.9; AK-based Prestwick Library Screening Results, E. coli (fold increase in extracellular AK activity) [5, 15]: 1.4; AK-based Prestwick Library Screening Results, E. cloacae (fold increase in extracellular AK activity) [6, 15]: 1.3; AK-based Prestwick Library Screening Results, P. aeruginosa (fold increase in extracellular AK activity) [7, 15]: 1.1
COc1ccc(Cc2nccc3cc(OC)c(OC)cc23)cc1OC [Papaverine hydrochloride]	–	–	–	–	–	–	–	fold induction at 50 µM ([1]; planktonic E. faecium, cutoff for positive-scoring molecules 3-fold increase, read-out: AK-based Prestwick Library Screening Results, E. faecium (increase in extracellular AK activity)): 1; fold induction at 50 µM ([2]; planktonic A. baumannii, cutoff for positive-scoring molecules 3-fold increase, read-out: AK-based Prestwick Library Screening Results, A. baumannii (increase in extracellular AK activity)): 0.8; fold induction at 50 µM ([3]; planktonic K. pneumoniae, cutoff for positive-scoring molecules 3-fold increase, read-out: AK-based Prestwick Library Screening Results, K. pneumoniae (increase in extracellular AK activity)): 0.8; fold induction at 50 µM ([4]; planktonic S. aureus, cutoff for positive-scoring molecules 3-fold increase, read-out: AK-based Prestwick Library Screening Results, S. aureus (increase in extracellular AK activity)): 0.6; fold induction at 50 µM ([5]; planktonic E. coli, cutoff for positive-scoring molecules 3-fold increase, read-out: AK-based Prestwick Library Screening Results, E. coli (increase in extracellular AK activity)): 0.9; fold induction at 50 µM ([6]; planktonic E. cloacae, cutoff for positive-scoring molecules 3-fold increase, read-out: AK-based Prestwick Library Screening Results, E. cloacae (increase in extracellular AK activity)): 0.9; fold induction at 50 µM ([7]; planktonic P. aeruginosa, cutoff for positive-scoring molecules 3-fold increase, read-out: AK-based Prestwick Library Screening Results, P. aeruginosa (increase in extracellular AK activity)): 1
Cc1ccc(/C(=C\CN2CCCC2)c2ccccn2)cc1 [Triprolidine hydrochloride]	1	0.9	0.7	0.6	1	1	1	–
CCn1cc(C(=O)O)c(=O)c2cnc(N3CCNCC3)nc21 [Pipemidic acid]	–	–	–	–	–	–	–	fold induction at 50 µM ([1]; planktonic, […], read-out: AK-based Prestwick Library Screening Results, E. faecium (fold increase in extracellular AK activity)): 1.1; fold induction at 50 µM ([2]; planktonic, […], read-out: AK-based Prestwick Library Screening Results, A. baumannii (fold increase in extracellular AK activity)): 0.9; fold induction at 50 µM ([3]; planktonic, […], read-out: AK-based Prestwick Library Screening Results, K. pneumoniae (fold increase in extracellular AK activity)): 1.7; fold induction at 50 µM ([4]; planktonic, […], read-out: AK-based Prestwick Library Screening Results, S. aureus (fold increase in extracellular AK activity)): 0.7; fold induction at 50 µM ([5]; planktonic, […], read-out: AK-based Prestwick Library Screening Results, E. coli (fold increase in extracellular AK activity)): 14.7; fold induction at 50 µM ([6]; planktonic, […], read-out: AK-based Prestwick Library Screening Results, E. cloacae (fold increase in extracellular AK activity)): 1; fold induction at 50 µM ([7]; planktonic, […], read-out: AK-based Prestwick Library Screening Results, P. aeruginosa (fold increase in extracellular AK activity)): 0.9
c1ccc(CN(CC2=NCCN2)c2ccccc2)cc1 [Antazoline hydrochloride]	1	0.8	0.6	0.8	0.7	0.8	0.7	–
